Columns and labels:
diatoms and algae = test: Similar trials with other urea cycle pathway inhibitors in mixed environment of diatoms and algae; details: no details given
diatoms [1] = test: Pond (natural habitat) trial with urea cycle pathway inhibitor, cellometer cell count: diatoms; parameters: species or system diatom; details: 25 mM added to pond
Protocol: (§1) Another experiment was carried out in a natural habitat i.e. a pond consisting of a mixed environment of algae and diatoms. At Day 1 using a cellometer technique the cell counts of algae and diatoms was carried out.
(§2) A urea cycle pathway inhibitor, namely Tris 25 mM was added to the pond.
(§3) Periodic cell count readings were carried out for a span of two months. The diatom and the algal cell count were then determined using the cellometer technique at the end of the 2 month span.

algae [2] = test: Pond (natural habitat) trial with urea cycle pathway inhibitor, cellometer cell count: algae; details: 25 mM added to pond, end of 2 month span; day 1 count 1000 cells/meter
Protocol: as §1, §2, §3

diatoms [3] = test: Mixed algae/diatom culture with urea cycle pathway inhibitor, cellometer cell count: diatoms; type: cell-based; details: 1 mM inhibitor
Protocol: (§4) A control was established containing equal quantities of algae and diatoms. Similarly a test was also established containing the same equal quantities of algae and diatoms along with 1 mM of urea cycle pathway inhibitor namely, Saccharopine.
(§5) At Day 1 using a cellometer technique the cell counts of algae and diatoms in both the control and the test was carried out.
(§6) Both the control and the test were then incubated for 4 days in similar optimum conditions with periodic checking for cell counts in both the control and the test vessels.
(§7) The diatom and the algal cell count was then determined using the cellometer technique at the end of 4th day.

algae [4] = test: Mixed algae/diatom culture with urea cycle pathway inhibitor, cellometer cell count: algae; type: cell-based; details: 1 mM inhibitor
Protocol: as §4, §5, §6, §7

Q: How did the “Outcome of similar trials (diatom inhibition and algal growth)” value (diatoms and algae) turn out when `NCCCC[C@H](N)C(=O)O` [lysine] was run?
A: The value was “equally successful results”.

Q: For `O=C([O-])c1ccccc1.[Na+]` [sodium benzoate], which “Outcome of similar trials (diatom inhibition and algal growth)” value (diatoms and algae) is on record?
A: The value was “equally successful results”.

Q: How did the “Outcome of similar trials (diatom inhibition and algal growth)” value (diatoms and algae) turn out when `O=S(=O)(O)CCN1CCN(CCO)CC1` [hepes] was run?
A: The value was “equally successful results”.

Q: With `NC(CO)(CO)CO` [Tris] as the compound, how does the “Diatom cell count of the pond reduced, as compared to the cell count of diatoms on Day 1” value (diatoms [1]; 2 months) read?
A: The value was 71%.

Q: And the “Cell count at Day 60 Diatom” value (diatoms [1]; end of 2 month span, day 1 count 2000 cells/meter)?
A: The value was 580 cells/meter.

Q: And the “Cell count at Day 60 Algae” value (algae [2])?
A: Its value is 5300 cells/meter.

Q: What about the “Outcome of similar trials (diatom inhibition and algal growth)” value (diatoms and algae) of the same compound?
A: The value was “equally successful results”.

Q: For `N[C@@H](CCCCN[C@@H](CCC(=O)O)C(=O)O)C(=O)O` [Saccharopine], which “Day 4 (Cell Count) Inhibitor Diatom” value (diatoms [3]; after 4 days incubation, control 842, day 1 count 200) is on record?
A: Its value is 62.

Q: What about the “Diatom cell count reduction from day 1” value (diatoms [3]; day 4) of the same compound?
A: Its value is 69%.

Q: And the “Day 1 (Cell count) Inhibitor Diatom” value (diatoms [3]; initial count at day 1)?
A: Its value is 200.

Q: And the “Day 4 (Cell Count) Inhibitor Algae” value (algae [4]; after 4 days incubation, control 119, day 1 count 100)?
A: The value was 450.

Q: What about the “Day 1 (Cell count) Inhibitor Algae” value (algae [4]; initial count at day 1) of the same compound?
A: The value was 100.

Q: What about the “Outcome of similar trials (diatom inhibition and algal growth)” value (diatoms and algae) of the same compound?
A: Its value is “equally successful results”.

Q: How did the “Outcome of similar trials (diatom inhibition and algal growth)” value (diatoms and algae) turn out when `CCCCCCCCCCCCCCCC(=O)SCCNC(=O)CCNC(=O)[C@H](O)C(C)(C)COP(=O)(O)OP(=O)(O)OC[C@H]1O[C@@H](n2cnc3c(N)ncnc32)[C@H](O)[C@@H]1OP(=O)(O)O` [palmitoyl CoA] was run?
A: Its value is “equally successful results”.

Q: `N` [ammonia] was tested. Which “Outcome of similar trials (diatom inhibition and algal growth)” value (diatoms and algae) did it give?
A: Its value is “equally successful results”.

— US20160272935A1, “Method of improving the yield of algae production” (RELIANCE INDUSTRIES LIMITED, priority 2013, published 2016)
